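Interpolation was linear, between the two tested concentrations surrounding the appropriate level; five concentrations were tested over 48 hours in 96-well plates. GI50 is the concentration that inhibits growth by half.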 The source made the active and inactive calls. Rule as the data show it: active = GI50 up to about 1.1 µM and inactive = higher.
Legend:
Assay in all cases: growth of human tumour cells (NCI), 48 h
[1] = test system: OVCAR-5
[2] = test system: CAKI-1
[3] = test system: HCC 2998
[4] = test system: MOLT-4
[5] = test system: SK-MEL-2
[6] = test system: PC-3
[7] = test system: RXF 393
[8] = test system: MDA-MB-435
[9] = test system: HT-29
[10] = test system: M14
[11] = test system: SNB-19
[12] = test system: NCI/ADR-RES
[13] = test system: A549
[14] = test system: U-251
[15] = test system: SK-OV-3
[16] = test system: UO-31
[17] = test system: NCI-H23
[18] = test system: SF-539
[19] = test system: CCRF-CEM
[20] = test system: LOX IMVI
[21] = test system: MDA-N
[22] = test system: RPMI-8226
[23] = test system: A498
[24] = test system: UACC-257
[25] = test system: ACHN
[26] = test system: SK-MEL-28
[27] = test system: SK-MEL-5
[28] = test system: Hs-578T
[29] = test system: COLO 205
[30] = test system: HCT-15
[31] = test system: SNB-75
[32] = test system: T47D
[33] = test system: TK-10
[34] = test system: K562
[35] = test system: SN12C
[36] = test system: SF-268
[37] = test system: EKVX
[38] = test system: HL-60
[39] = test system: HCT-116
[40] = test system: SR
[41] = test system: BT-549
[42] = test system: 786-0
[43] = test system: IGROV-1
[44] = test system: SW-620
[45] = test system: OVCAR-8
[46] = test system: KM12
[47] = test system: NCI-H226
[48] = test system: DU-145
[49] = test system: NCI-H522
[50] = test system: MCF7
[51] = test system: NCI-H460
[52] = test system: Malme-3M
[53] = test system: SF-295
[54] = test system: OVCAR-3
[55] = test system: HOP-92
[56] = test system: UACC-62
[57] = test system: HOP-62
[58] = test system: OVCAR-4
[59] = test system: MDA-MB-231

CCOC(=O)C(NC(=O)CC)(Nc1ccc(F)cc1F)C(F)(F)F (centres undefined)
GI50 [1]: > 100 µM (inactive) | GI50 [2]: 1.31 µM (inactive) | GI50 [3]: > 100 µM (inactive) | GI50 [4]: > 100 µM (inactive) | GI50 [5]: > 100 µM (inactive) | GI50 [6]: > 100 µM (inactive) | GI50 [7]: > 100 µM (inactive) | GI50 [8]: 40.7 µM (inactive) | GI50 [9]: > 100 µM (inactive) | GI50 [10]: > 100 µM (inactive) | GI50 [11]: > 100 µM (inactive) | GI50 [12]: > 100 µM (inactive) | GI50 [13]: > 100 µM (inactive) | GI50 [14]: > 100 µM (inactive) | GI50 [15]: > 100 µM (inactive) | GI50 [16]: 11.8 µM (inactive) | GI50 [17]: > 100 µM (inactive) | GI50 [18]: > 100 µM (inactive) | GI50 [19]: > 100 µM (inactive) | GI50 [20]: > 100 µM (inactive) | GI50 [21]: 31.9 µM (inactive) | GI50 [22]: > 100 µM (inactive) | GI50 [23]: > 100 µM (inactive) | GI50 [24]: > 100 µM (inactive) | GI50 [25]: > 100 µM (inactive) | GI50 [26]: > 100 µM (inactive) | GI50 [27]: > 100 µM (inactive) | GI50 [28]: 18.2 µM (inactive) | GI50 [29]: > 100 µM (inactive) | GI50 [30]: > 100 µM | GI50 [31]: 83 µM (inactive) | GI50 [32]: > 100 µM (inactive) | GI50 [33]: > 100 µM (inactive) | GI50 [34]: 60.4 µM (inactive) | GI50 [35]: > 100 µM (inactive) | GI50 [36]: > 100 µM (inactive) | GI50 [37]: > 100 µM (inactive) | GI50 [38]: 34 µM (inactive) | GI50 [39]: > 100 µM (inactive) | GI50 [40]: > 100 µM (inactive) | GI50 [41]: > 100 µM (inactive) | GI50 [42]: > 100 µM (inactive) | GI50 [43]: > 100 µM (inactive) | GI50 [44]: 85.7 µM (inactive) | GI50 [45]: > 100 µM (inactive)

Cc1ccc([N+](=O)[O-])cc1S(=O)(=O)Nc1ccc(C2=NNC(c3cccs3)C2)cc1 (centres undefined)
GI50 [1]: 58.9 µM (inactive) | GI50 [2]: 30.5 µM (inactive) | GI50 [3]: 30.8 µM (inactive) | GI50 [4]: 13.7 µM (inactive) | GI50 [5]: 33.7 µM (inactive) | GI50 [6]: 33.3 µM (inactive) | GI50 [7]: 13.6 µM (inactive) | GI50 [8]: 35.6 µM (inactive) | GI50 [46]: 16.5 µM (inactive) | GI50 [9]: 29.9 µM (inactive) | GI50 [47]: 49.7 µM (inactive) | GI50 [10]: 25.5 µM (inactive) | GI50 [11]: 28.8 µM (inactive) | GI50 [12]: 26.5 µM (inactive) | GI50 [13]: 22.9 µM (inactive) | GI50 [15]: 20.7 µM (inactive) | GI50 [48]: 30.3 µM (inactive) | GI50 [16]: 5.32 µM (inactive) | GI50 [49]: 24.7 µM (inactive) | GI50 [17]: 22.2 µM (inactive) | GI50 [18]: 48.1 µM (inactive) | GI50 [50]: 13.7 µM (inactive) | GI50 [19]: 20.2 µM (inactive) | GI50 [20]: 28.7 µM (inactive) | GI50 [51]: 25.4 µM (inactive) | GI50 [21]: 34.9 µM (inactive) | GI50 [22]: 16.6 µM (inactive) | GI50 [52]: 23.4 µM (inactive) | GI50 [23]: 20.4 µM (inactive) | GI50 [24]: 26.9 µM (inactive) | GI50 [25]: 20.7 µM (inactive) | GI50 [26]: 48.5 µM (inactive) | GI50 [27]: 17.4 µM (inactive) | GI50 [28]: 58.2 µM (inactive) | GI50 [29]: 6.87 µM (inactive) | GI50 [53]: 6.67 µM (inactive) | GI50 [54]: 12.6 µM (inactive) | GI50 [30]: 17 µM | GI50 [31]: 31.3 µM (inactive) | GI50 [32]: 4.85 µM (inactive) | GI50 [34]: 17.4 µM (inactive) | GI50 [35]: 29.2 µM (inactive) | GI50 [55]: 60 µM (inactive) | GI50 [36]: 36.8 µM (inactive) | GI50 [37]: 18.8 µM (inactive) | GI50 [56]: 14.5 µM (inactive) | GI50 [38]: 0.0627 µM (active) | GI50 [57]: 24.3 µM (inactive) | GI50 [39]: 22.5 µM (inactive) | GI50 [58]: 22 µM (inactive) | GI50 [40]: 20 µM (inactive) | GI50 [41]: 23.2 µM (inactive) | GI50 [42]: 31.3 µM (inactive) | GI50 [43]: 58.9 µM (inactive) | GI50 [44]: 34.1 µM (inactive) | GI50 [45]: 54.2 µM (inactive)

CCN(CCCN(CC)C(=O)N[C@@H](Cc1ccccc1)C(=O)NC)C(=O)N[C@@H](Cc1ccccc1)C(=O)NC
GI50 [1]: > 100 µM (inactive) | GI50 [2]: > 100 µM (inactive) | GI50 [3]: > 100 µM (inactive) | GI50 [5]: > 100 µM (inactive) | GI50 [6]: > 100 µM (inactive) | GI50 [7]: > 100 µM (inactive) | GI50 [8]: > 100 µM (inactive) | GI50 [46]: > 100 µM (inactive) | GI50 [9]: > 100 µM (inactive) | GI50 [47]: > 100 µM (inactive) | GI50 [10]: > 100 µM (inactive) | GI50 [11]: > 100 µM (inactive) | GI50 [12]: > 100 µM (inactive) | GI50 [13]: > 100 µM (inactive) | GI50 [14]: > 100 µM (inactive) | GI50 [15]: > 100 µM (inactive) | GI50 [48]: > 100 µM (inactive) | GI50 [16]: > 100 µM (inactive) | GI50 [49]: > 100 µM (inactive) | GI50 [17]: > 100 µM (inactive) | GI50 [18]: > 100 µM (inactive) | GI50 [20]: > 100 µM (inactive) | GI50 [51]: > 100 µM (inactive) | GI50 [21]: > 100 µM (inactive) | GI50 [52]: > 100 µM (inactive) | GI50 [23]: > 100 µM (inactive) | GI50 [24]: > 100 µM (inactive) | GI50 [25]: > 100 µM (inactive) | GI50 [26]: > 100 µM (inactive) | GI50 [27]: > 100 µM (inactive) | GI50 [28]: > 100 µM (inactive) | GI50 [29]: > 100 µM (inactive) | GI50 [53]: > 100 µM (inactive) | GI50 [54]: > 100 µM (inactive) | GI50 [30]: > 100 µM | GI50 [32]: > 100 µM (inactive) | GI50 [33]: > 100 µM (inactive) | GI50 [55]: > 100 µM (inactive) | GI50 [36]: > 100 µM (inactive) | GI50 [37]: > 100 µM (inactive) | GI50 [56]: > 100 µM (inactive) | GI50 [57]: > 100 µM (inactive) | GI50 [39]: > 100 µM (inactive) | GI50 [58]: > 100 µM (inactive) | GI50 [40]: > 100 µM (inactive) | GI50 [59]: > 100 µM (inactive) | GI50 [41]: > 100 µM (inactive) | GI50 [42]: > 100 µM (inactive) | GI50 [44]: > 100 µM (inactive) | GI50 [45]: > 100 µM (inactive)

O=C1c2ccccc2C(=O)c2c(NC(=O)C3CC3)ccc(NC(=O)C3CC3)c21
GI50 [1]: > 100 µM (inactive) | GI50 [3]: > 100 µM (inactive) | GI50 [4]: > 100 µM (inactive) | GI50 [5]: > 100 µM (inactive) | GI50 [6]: > 100 µM (inactive) | GI50 [8]: > 100 µM (inactive) | GI50 [46]: > 100 µM (inactive) | GI50 [9]: > 100 µM (inactive) | GI50 [11]: > 100 µM (inactive) | GI50 [12]: > 100 µM (inactive) | GI50 [13]: > 100 µM (inactive) | GI50 [14]: 91.2 µM (inactive) | GI50 [16]: > 100 µM (inactive) | GI50 [49]: 65.8 µM (inactive) | GI50 [17]: > 100 µM (inactive) | GI50 [18]: > 100 µM (inactive) | GI50 [50]: 83.2 µM (inactive) | GI50 [20]: > 100 µM (inactive) | GI50 [51]: > 100 µM (inactive) | GI50 [21]: > 100 µM (inactive) | GI50 [22]: > 100 µM (inactive) | GI50 [52]: 61.2 µM (inactive) | GI50 [23]: > 100 µM (inactive) | GI50 [24]: > 100 µM (inactive) | GI50 [25]: 58.2 µM (inactive) | GI50 [26]: > 100 µM (inactive) | GI50 [27]: > 100 µM (inactive) | GI50 [28]: > 100 µM (inactive) | GI50 [29]: > 100 µM (inactive) | GI50 [53]: 33.4 µM (inactive) | GI50 [54]: > 100 µM (inactive) | GI50 [30]: > 100 µM | GI50 [32]: > 100 µM (inactive) | GI50 [33]: > 100 µM (inactive) | GI50 [34]: > 100 µM (inactive) | GI50 [35]: > 100 µM (inactive) | GI50 [37]: > 100 µM (inactive) | GI50 [56]: 26.9 µM (inactive) | GI50 [38]: 95.7 µM (inactive) | GI50 [57]: > 100 µM (inactive) | GI50 [39]: > 100 µM (inactive) | GI50 [40]: > 100 µM (inactive) | GI50 [59]: > 100 µM (inactive) | GI50 [41]: > 100 µM (inactive) | GI50 [42]: 61.7 µM (inactive) | GI50 [43]: > 100 µM (inactive) | GI50 [44]: > 100 µM (inactive) | GI50 [45]: > 100 µM (inactive)

Reference: ChEMBL document CHEMBL1201862, “PubChem BioAssay data set” (2004)
